From article PMC10151572, “The identification of viral ribonucleotide reductase encoded by ORF23 and ORF141 genes and effect on CyHV-2 replication” (Frontiers in Microbiology, 2023)

How the values were obtained:
[1] = molecular target: T1, CyHV-2 RR (ORF23-GST + ORF141-His) (Cyprinid herpesvirus 2, UniProt K7PBF0+K7PBQ3); experiment: RR activity, dCDP formation by HPLC after borate column; format: biochemical; conditions: hydroxyurea 80 μM; 10 μg of both recombinant proteins; CDP 80 μM, ATP 2.7 mM, other nucleotides; 50 mM HEPES-KOH, 5 mM MgCl2, 50 mM DTT, 20 mM ferrous ammonium sulfate; 1 h at 4°C
T1 construct: gene CyHV2_ORF23; recombinant ORF23-GST and ORF141-His mixed in vitro; RR described in general as two homodimers (alpha2beta2)

[2] = molecular target: T1, CyHV-2 RR (ORF23-GST + ORF141-His); experiment: as above; format: biochemical; conditions: CDP 80 μM with ATP 2.7 mM, dATP, dTTP, dGTP, UDP, ADP, GDP; both subunits needed; 50 mM HEPES-KOH, 5 mM MgCl2, 50 mM DTT, 20 mM ferrous ammonium sulfate; 1 h at 4°C

Compound	% activity reduction at 80 μM [1] [%]	RR activity, dCDP formation by HPLC after borate column [2]
NC(=O)NO [hydroxyurea]	52	–
Nc1ccn([C@@H]2O[C@H](COP(=O)(O)OP(=O)(O)O)[C@@H](O)[C@H]2O)c(=O)n1 [CDP]	–	interaction between ORF23-GST and ORF141-His proteins is essential for catalyzing the reduction of CDP to
